Measured values taken from US20120029190A1, “COMPOUNDS FOR TREATING DISORDERS MEDIATED BY METABOTROPIC GLUTAMATE RECEPTOR 5, AND METHODS OF USE THEREOF” (priority 2009, published 2012).

target: T1, human recombinant mGluR5 receptor (Homo sapiens, UniProt P41594); assay: mGluR5 in vitro functional assay (aequorin cell line, inhibition of glutamate EC80 response); assay type: cell-based; conditions: Table 2; aequorin cell line expressing human mGluR5, reference agonist glutamate at EC80; obtained in duplicate; read-out: IC50
T1 construct: expressed in transfected cells; expression induced with doxycycline
Outline: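 Doxycycline-induced (600 ng/mL, 18 h) aequorin cells loaded with coelenterazine h ≥4 h at room temperature; compound preincubated 3 min before glutamate at EC80. Luminescence recorded, normalized to digitonin or 20 mM ATP wells; % inhibition of EC80 response fitted by sigmoidal nonlinear regression.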

T1 sequence (P41594 21-1212): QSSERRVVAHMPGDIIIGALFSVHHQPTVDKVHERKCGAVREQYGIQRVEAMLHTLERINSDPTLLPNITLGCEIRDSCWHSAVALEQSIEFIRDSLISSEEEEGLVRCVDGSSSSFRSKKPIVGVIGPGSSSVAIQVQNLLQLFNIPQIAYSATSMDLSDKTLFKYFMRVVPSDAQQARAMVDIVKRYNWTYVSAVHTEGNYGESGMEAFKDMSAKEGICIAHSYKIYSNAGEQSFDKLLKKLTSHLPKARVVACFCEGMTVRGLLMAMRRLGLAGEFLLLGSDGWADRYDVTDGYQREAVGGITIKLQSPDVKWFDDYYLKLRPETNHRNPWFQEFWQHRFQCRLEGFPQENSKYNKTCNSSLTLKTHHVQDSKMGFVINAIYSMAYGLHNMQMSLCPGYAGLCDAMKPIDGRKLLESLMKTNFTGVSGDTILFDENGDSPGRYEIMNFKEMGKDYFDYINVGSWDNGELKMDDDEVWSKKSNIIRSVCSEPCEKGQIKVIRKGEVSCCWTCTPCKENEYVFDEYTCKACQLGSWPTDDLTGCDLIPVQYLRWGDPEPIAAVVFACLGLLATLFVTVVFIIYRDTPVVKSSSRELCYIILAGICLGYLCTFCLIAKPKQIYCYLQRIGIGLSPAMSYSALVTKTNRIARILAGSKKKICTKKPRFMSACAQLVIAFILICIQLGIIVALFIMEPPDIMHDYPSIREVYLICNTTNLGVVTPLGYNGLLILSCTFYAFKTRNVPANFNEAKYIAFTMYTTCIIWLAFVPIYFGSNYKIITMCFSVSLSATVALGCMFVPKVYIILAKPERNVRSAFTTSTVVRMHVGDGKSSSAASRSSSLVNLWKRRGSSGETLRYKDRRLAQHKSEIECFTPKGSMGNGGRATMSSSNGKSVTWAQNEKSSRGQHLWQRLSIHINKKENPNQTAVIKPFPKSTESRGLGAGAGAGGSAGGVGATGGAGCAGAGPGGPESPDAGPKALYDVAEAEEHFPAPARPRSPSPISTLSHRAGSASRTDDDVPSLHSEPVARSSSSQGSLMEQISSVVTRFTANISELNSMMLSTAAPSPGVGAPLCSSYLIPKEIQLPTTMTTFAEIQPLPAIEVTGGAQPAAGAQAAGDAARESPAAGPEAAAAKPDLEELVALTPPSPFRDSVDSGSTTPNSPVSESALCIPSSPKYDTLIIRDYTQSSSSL

Row | SMILES | IC50 [µM]
1 | Cc1cccnc1-c1nc2c(o1)CCN(c1cc(F)cc(C#N)c1)C2 [Compound 121, 3-fluoro-5-(2-(3-methylpyridin-2-yl)-6,7-dihydrooxazolo[4,5-c]pyridin-5(4H)-yl)benzonitrile] | < 10
2 | Cc1cccnc1-c1nc2c(o1)CCN(c1cccc(F)c1)C2 [Compound 122, 5-(3-fluorophenyl)-2-(3-methylpyridin-2-yl)-4,5,6,7-tetrahydrooxazolo[4,5-c]pyridine] | > 10
3 | Cc1cccnc1-c1nc2c(o1)CCN(c1cccc(Cl)c1)C2 [Compound 123, 5-(3-chlorophenyl)-2-(3-methylpyridin-2-yl)-4,5,6,7-tetrahydrooxazolo[4,5-c]pyridine] | > 10
4 | Fc1ccc(-c2nc3c(o2)CCN(c2cccc(F)c2)C3)nc1 [Compound 124, 5-(3-fluorophenyl)-2-(5-fluoropyridin-2-yl)-4,5,6,7-tetrahydrooxazolo[4,5-c]pyridine] | < 1
5 | Fc1ccc(-c2nc3c(o2)CCN(c2cccc(Cl)c2)C3)nc1 [Compound 125, 5-(3-chlorophenyl)-2-(5-fluoropyridin-2-yl)-4,5,6,7-tetrahydrooxazolo[4,5-c]pyridine] | < 1
6 | c1ccc(N2CCc3oc(-c4ccccn4)nc3C2)cc1 [Compound 126, 5-phenyl-2-(pyridin-2-yl)-4,5,6,7-tetrahydrooxazolo[4,5-c]pyridine] | < 1
7 | COc1cccc(N2CCc3oc(-c4ccccn4)nc3C2)c1 [Compound 127, 5-(3-methoxyphenyl)-2-(pyridin-2-yl)-4,5,6,7-tetrahydrooxazolo[4,5-c]pyridine] | < 1
8 | c1ccc(-c2nc3c(o2)CCN(c2cncnc2)C3)nc1 [Compound 131, 2-(pyridin-2-yl)-5-(pyrimidin-5-yl)-4,5,6,7-tetrahydrooxazolo[4,5-c]pyridine] | < 10
9 | c1ccc(-c2nc3c(o2)CCN(c2ncccn2)C3)nc1 [Compound 132, 2-(pyridin-2-yl)-5-(pyrimidin-2-yl)-4,5,6,7-tetrahydrooxazolo[4,5-c]pyridine] | < 10
10 | Fc1ccc(-c2nc3c(o2)CCCN(c2cccc(F)c2)C3)nc1 [Compound 133, 5-(3-fluorophenyl)-2-(5-fluoropyridin-2-yl)-5,6,7,8-tetrahydro-4H-oxazolo[4,5-c]azepine] | < 1
11 | Fc1ccc(-c2nc3c(o2)CCCN(c2cccc(Cl)c2)C3)nc1 [Compound 134, 5-(3-chlorophenyl)-2-(5-fluoropyridin-2-yl)-5,6,7,8-tetrahydro-4H-oxazolo[4,5-c]azepine] | < 1
12 | N#Cc1cc(F)cc(N2CCCc3oc(-c4ccc(F)cn4)nc3C2)c1 [Compound 135, 3-fluoro-5-(2-(5-fluoropyridin-2-yl)-7,8-dihydro-4H-oxazolo[4,5-c]azepin-5(6H)-yl)benzonitrile] | < 1
13 | Fc1cccc(N2CCCc3oc(-c4ccncn4)nc3C2)c1 [Compound 136, 5-(3-fluorophenyl)-2-(pyrimidin-4-yl)-5,6,7,8-tetrahydro-4H-oxazolo[4,5-c]azepine] | < 1
14 | Clc1cccc(N2CCCc3oc(-c4ccncn4)nc3C2)c1 [Compound 137, 5-(3-chlorophenyl)-2-(pyrimidin-4-yl)-5,6,7,8-tetrahydro-4H-oxazolo[4,5-c]azepine] | < 1
15 | N#Cc1cc(F)cc(N2CCCc3oc(-c4ccncn4)nc3C2)c1 [Compound 138, 3-fluoro-5-(2-(pyrimidin-4-yl)-7,8-dihydro-4H-oxazolo[4,5-c]azepin-5(6H)-yl)benzonitrile] | < 1
16 | Fc1cccc(N2CCCc3oc(-c4cnccn4)nc3C2)c1 [Compound 139, 5-(3-fluorophenyl)-2-(pyrazin-2-yl)-5,6,7,8-tetrahydro-4H-oxazolo[4,5-c]azepine] | < 10
17 | Clc1cccc(N2CCCc3oc(-c4cnccn4)nc3C2)c1 [Compound 140, 5-(3-chlorophenyl)-2-(pyrazin-2-yl)-5,6,7,8-tetrahydro-4H-oxazolo[4,5-c]azepine] | < 10
18 | N#Cc1cc(F)cc(N2CCCc3oc(-c4cnccn4)nc3C2)c1 [Compound 141, 3-fluoro-5-(2-(pyrazin-2-yl)-7,8-dihydro-4H-oxazolo[4,5-c]azepin-5(6H)-yl)benzonitrile] | < 1
19 | Fc1ccc(N2CCCc3oc(-c4ccccn4)nc3C2)cc1Cl [Compound 144, 5-(3-chloro-4-fluorophenyl)-2-(pyridin-2-yl)-5,6,7,8-tetrahydro-4H-oxazolo[4,5-c]azepine] | < 1
20 | Cc1nc(-c2nc3c(o2)CCCN(c2cc(F)cc(C#N)c2)C3)cs1 [Compound 145, 3-fluoro-5-(2-(2-methylthiazol-4-yl)-7,8-dihydro-4H-oxazolo[4,5-c]azepin-5(6H)-yl)benzonitrile] | < 1
21 | Fc1ccc(N2CCc3oc(-c4ccccn4)nc3C2)cc1Cl [Compound 146, 5-(3-chloro-4-fluorophenyl)-2-(pyridin-2-yl)-4,5,6,7-tetrahydrooxazolo[4,5-c]pyridine] | < 1
22 | N#Cc1cccc(N2CCc3nc(-c4ccccc4)oc3C2)c1 [Compound 148, 3-(2-Phenyl-6,7-dihydrooxazolo[5,4-c]pyridin-5(4H)-yl)benzonitrile] | < 10

Row | SMILES | IC50 [µM]
23 | N#Cc1cccc(N2CCc3nc(C4CCCCC4)oc3C2)c1 [Compound 149, 3-(2-Cyclohexyl-6,7-dihydrooxazolo[5,4-c]pyridin-5(4H)-yl)benzonitrile] | < 10
24 | O=C(CN1CCc2nc(-c3ccccn3)oc2C1)c1ccc(F)cc1 [Compound 150, 1-(4-Fluorophenyl)-2-(2-(pyridin-2-yl)-6,7-dihydrooxazolo[5,4-c]pyridin-5(4H)-yl)ethanone] | > 10
25 | COC(=O)N1CCc2oc(-c3ccccn3)nc2C1 [Compound 151, Methyl 2-(pyridin-2-yl)-6,7-dihydrooxazolo[4,5-c]pyridine-5(4H)-carboxylate] | > 10
26 | Fc1ccc(N2CCc3oc(-c4ccccn4)nc3C2)cc1F [Compound 152, 5-(3,4-Difluorophenyl)-2-(pyridin-2-yl)-4,5,6,7-tetrahydrooxazolo[4,5-c]pyridine] | < 1
27 | Fc1cc(N2CCc3oc(-c4ccccn4)nc3C2)cc(F)c1F [Compound 153, 2-(Pyridin-2-yl)-5-(3,4,5-trifluorophenyl)-4,5,6,7-tetrahydrooxazolo[4,5-c]pyridine] | < 1
28 | c1ccc(-c2nc3c(o2)CCN(c2cccnc2)C3)nc1 [Compound 154, 2-(Pyridin-2-yl)-5-(pyridin-3-yl)-4,5,6,7-tetrahydrooxazolo[4,5-c]pyridine] | < 1
29 | N#Cc1cc(F)cc(N2CCc3oc(Cc4ccccc4)nc3C2)c1 [Compound 155, 3-(2-Benzyl-6,7-dihydrooxazolo[4,5-c]pyridin-5(4H)-yl)-5-fluorobenzonitrile] | > 10
30 | Clc1ccccc1N1CCc2oc(-c3ccccn3)nc2C1 [Compound 156, 5-(2-Chlorophenyl)-2-(pyridin-2-yl)-4,5,6,7-tetrahydrooxazolo[4,5-c]pyridine] | < 1
31 | Clc1ccc(N2CCc3oc(-c4ccccn4)nc3C2)cc1 [Compound 157, 5-(4-Chlorophenyl)-2-(pyridin-2-yl)-4,5,6,7-tetrahydrooxazolo[4,5-c]pyridine] | < 1
32 | Fc1cc(Cl)cc(N2CCc3oc(-c4ccccn4)nc3C2)c1 [Compound 158, 5-(3-Chloro-5-fluorophenyl)-2-(pyridin-2-yl)-4,5,6,7-tetrahydrooxazolo[4,5-c]pyridine] | < 1
33 | Fc1ccc(-c2nc3c(o2)CCN(c2cc(F)cc(Cl)c2)C3)nc1 [Compound 159, 5-(3-Chloro-5-fluorophenyl)-2-(5-fluoropyridin-2-yl)-4,5,6,7-tetrahydrooxazolo[4,5-c]pyridine] | < 1
34 | N#Cc1cc(F)cc(N2CCc3oc(-c4cncnc4)nc3C2)c1 [Compound 160, 3-Fluoro-5-(2-(pyrimidin-5-yl)-6,7-dihydrooxazolo[4,5-c]pyridin-5(4H)-yl)benzonitrile] | > 10
35 | Cc1nc(-c2nc3c(o2)CCN(c2ccccn2)C3)cs1 [Compound 161, 2-(2-Methylthiazol-4-yl)-5-(pyridin-2-yl)-4,5,6,7-tetrahydrooxazolo[4,5-c]pyridine] | < 1
36 | Clc1cc(Cl)cc(N2CCc3oc(-c4ccccn4)nc3C2)c1 [Compound 162, 5-(3,5-Dichlorophenyl)-2-(pyridin-2-yl)-4,5,6,7-tetrahydrooxazolo[4,5-c]pyridine] | < 1
37 | Cc1nc(N2CCc3oc(-c4ccccn4)nc3C2)cs1 [Compound 163, 5-(2-Methylthiazol-4-yl)-2-(pyridin-2-yl)-4,5,6,7-tetrahydrooxazolo[4,5-c]pyridine] | < 1
38 | N#Cc1cc(F)cc(-c2nc3c(o2)CCN(c2ccccn2)C3)c1 [Compound 164, 3-Fluoro-5-(5-(pyridin-2-yl)-4,5,6,7-tetrahydrooxazolo[4,5-c]pyridin-2-yl)benzonitrile] | < 10
39 | N#Cc1cc(F)ccc1N1CCc2oc(-c3ccccn3)nc2C1 [Compound 165, 5-Fluoro-2-(2-(pyridin-2-yl)-6,7-dihydrooxazolo[4,5-c]pyridin-5(4H)-yl)benzonitrile] | < 1
40 | Fc1ccccc1N1CCc2oc(-c3ccccn3)nc2C1 [Compound 166, 5-(2-Fluorophenyl)-2-(pyridin-2-yl)-4,5,6,7-tetrahydrooxazolo[4,5-c]pyridine] | < 1
41 | Fc1ccc(-c2nc3c(o2)CCN(c2ccccc2Cl)C3)nc1 [Compound 167, 5-(2-Chlorophenyl)-2-(5-fluoropyridin-2-yl)-4,5,6,7-tetrahydrooxazolo[4,5-c]pyridine] | < 1
42 | Clc1ccccc1N1CCc2oc(-c3ccncn3)nc2C1 [Compound 168, 5-(2-Chlorophenyl)-2-(pyrimidin-4-yl)-4,5,6,7-tetrahydrooxazolo[4,5-c]pyridine] | < 10
43 | Fc1ccc(F)c(N2CCc3oc(-c4ccccn4)nc3C2)c1 [Compound 169, 5-(2,5-Difluorophenyl)-2-(pyridin-2-yl)-4,5,6,7-tetrahydrooxazolo[4,5-c]pyridine] | < 1
